The values below come from patent US11505528B2, “Inhibitors of microbially induced amyloid” (Axial Therapeutics, Inc., priority 2017, dated 2022).

In general, inhibition refers to the drop in the measured response relative to a control, in per cent.

Each structure is given as a SMILES string. Where two headings read alike, the source gives them in different places. A value given as a limit tells only on which side of the number the result lay.

What all share (format): biochemical
Test [1] deals with T1, α-synuclein seeded by E. coli CsgA (Homo sapiens, UniProt P37840).
T1 construct: the full-length gene for untagged human α-synuclein was inserted; made in house; host or cells: α-synuclein: E. coli BL21 (DE3); CsgA: E. coli NEB 3016 slyD::kan
The experiment in a line: Thioflavin T cell-free assay of CsgA-seeded α-synuclein aggregation.

Test [2] has as its target T2, human α-synuclein (Homo sapiens, UniProt P37840).
T2 construct: the full-length gene for untagged human α-synuclein was inserted; made in house; host or cells: E. coli BL21 (DE3)
The test can be described thus: Thioflavin T cell-free assay of α-synuclein aggregation. As to conditions: α-synuclein 50 μM, compounds at 20-50 μM, data from 36 hours; for Inhibition of Aggregation, αSyn: ThT fluorescence, negative = potentiation.

Test [3] deals with T3, E. coli CsgA (Escherichia coli, UniProt P28307).
T3 construct: 6xHis (C); made in house; host or cells: E. coli NEB 3016 slyD::kan
T3 sequence (P28307 23-151): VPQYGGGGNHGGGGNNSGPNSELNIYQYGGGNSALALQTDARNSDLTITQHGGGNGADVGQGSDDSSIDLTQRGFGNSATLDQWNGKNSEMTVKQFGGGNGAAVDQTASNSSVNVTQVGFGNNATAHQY
The experiment in a line: Thioflavin T cell-free assay of CsgA aggregation.

The mark [4] stands for this setting: read-out: Inhibition of Aggregation, CsgA-seeded αSyn.
[5] abbreviates: read-out: Inhibition of Aggregation, CsgA-seeded αSyn (compound activity range).
Setting [6] is: read-out: Inhibition of Aggregation, CsgA.
[7] abbreviates: read-out: Inhibition of Aggregation, CsgA (compound activity range).

Consider `O=C(Nc1sc2c(c1C(=O)Nc1cc(O)c(O)c(O)c1)CCCC2)c1cc(O)c(O)c(O)c1` [Compound 2, 2-(3,4,5-trihydroxybenzamido)-N-(3,4,5-trihydroxyphenyl)-4,5,6,7-tetrahydrobenzo[b]thiophene-3-carboxamide], for which the inhibition at 50 µM is 63% in test [1] (setting [4]) and > 60% in test [1] (setting [5]). Also, the “Inhibition of Aggregation, αSyn” value in test [2] turned out to be 93%. Besides, the “Inhibition of Aggregation, αSyn (compound activity range)” value (shortened to “Inhibition … (compound activity range)”) in test [2] is given as “(+++) ((+++) is greater than 60% inhibition)”. The inhibition at 20 µM is 45% in test [3] (setting [6]) and 30 to 60% in test [3] (setting [7]).
`O=C(Nc1sc2c(c1C(=O)Nc1cc(O)cc(O)c1)CCCC2)c1cc(O)c(O)c(O)c1` [Compound 6, N-(3,5-dihydroxyphenyl)-2-(3,4,5-trihydroxybenzamido)-4,5,6,7-tetrahydrobenzo[b]thiophene-3-carboxamide]: the inhibition at 50 µM was > 90% in test [1] (setting [4]) and > 60% in test [1] (setting [5]). Besides, in test [2], the “Inhibition of Aggregation, αSyn” value was 36%. Further, in test [2], the “Inhibition … (compound activity range)” value is “(++) ((++) is between 30% to 60% inhibition)”. In addition, the inhibition at 20 µM is 40% in test [3] (setting [6]) and 30 to 60% in test [3] (setting [7]).
Turning to `COc1cc(NC(=O)c2c(N)sc3c2CCCC3)cc(OC)c1OC` [Compound 14, 2-amino-N-(3,4,5-trimethoxyphenyl)-4,5,6,7-tetrahydrobenzo[b]thiophene-3-carboxamide], the inhibition at 50 µM in test [1] (setting [4]) amounted to 74%. In addition, the inhibition at 50 µM in test [1] (setting [5]) is > 60%. For the same compound, in test [2], the “Inhibition of Aggregation, αSyn” value was 3% and the “Inhibition … (compound activity range)” value is listed as “(−) ((−) is between −10% to 10% inhibition)”.
As to `COc1cc(NC(=O)c2c[nH]c3cc(OC)c(OC)c(OC)c3c2=O)cc(OC)c1OC` [Compound 19, 5,6,7-trimethoxy-4-oxo-N-(3,4,5-trimethoxyphenyl)-1,4-dihydroquinoline-3-carboxamide], the inhibition at 50 µM was 14% in test [1] (setting [4]) and 10 to 30% in test [1] (setting [5]). For the same compound, the “Inhibition of Aggregation, αSyn” value in test [2] is 29%. Moreover, the “Inhibition … (compound activity range)” value in test [2] is reported as “(+) ((+) is between 10% to 30% inhibition)”. The values for the inhibition at 20 µM in test [3] (setting [6]) and in test [3] (setting [7]) were 18% and 10 to 30%, respectively.
`O=C(Nc1cc(O)c(O)c(O)c1)c1c[nH]c2cc(O)c(O)c(O)c2c1=O` [Compound 20, 5,6,7-trihydroxy-4-oxo-N-(3,4,5-trihydroxyphenyl)-1,4-dihydroquinoline-3-carboxamide]: the inhibition at 50 µM in test [1] (setting [4]) was 11%; in test [1] (setting [5]), 10 to 30%. In addition, the inhibition at 20 µM in test [3] (setting [6]) was 61%; in test [3] (setting [7]) it was > 60%.
With `COc1cc(OC(=O)c2c[nH]c3cc(OC)c(OC)c(OC)c3c2=O)cc(OC)c1OC` [Compound 23, 3,4,5-trimethoxyphenyl 5,6,7-trimethoxy-4-oxo-1,4-dihydroquinoline-3-carboxylate], the results for the inhibition at 50 µM in test [1] (setting [4]) and in test [1] (setting [5]) were -22% and < -10%, respectively. Moreover, the results for the inhibition at 20 µM in test [3] (setting [6]) and in test [3] (setting [7]) were -4% and -10 to 10%, respectively.
Regarding `COc1cc(OC)c2c(=O)c(C(=O)Oc3cc(OC)c(OC)c(OC)c3)c[nH]c2c1` [Compound 24, 3,4,5-trimethoxyphenyl 5,7-dimethoxy-4-oxo-1,4-dihydroquinoline-3-carboxylate], the inhibition at 50 µM in test [1] (setting [4]) is -27%; in test [1] (setting [5]), < -10%. Also, the inhibition at 20 µM was -1% in test [3] (setting [6]) and -10 to 10% in test [3] (setting [7]).
For `COc1cc(OC)c2c(=O)c(C(=O)Nc3cccc(O)c3)c[nH]c2c1` [Compound 26, N-(3-hydroxyphenyl)-5,7-dimethoxy-4-oxo-1,4-dihydroquinoline-3-carboxamide], the results for the inhibition at 50 µM in test [1] (setting [4]) and in test [1] (setting [5]) were < -50% and < -10%, respectively. For the same compound, the “Inhibition of Aggregation, αSyn” value in test [2] turned out to be 24%. Also, in test [2], the “Inhibition … (compound activity range)” value is given as “(+) ((+) is between 10% to 30% inhibition)”. Besides, the results for the inhibition at 20 µM in test [3] (setting [6]) and in test [3] (setting [7]) were 8% and -10 to 10%, respectively.
As for `O=C(Nc1ccccc1)c1c[nH]c2cc(O)cc(O)c2c1=O` [Compound 27, 5,7-dihydroxy-4-oxo-N-phenyl-1,4-dihydroquinoline-3-carboxamide], the inhibition at 50 µM in test [1] (setting [4]) was 79%; in test [1] (setting [5]), > 60%. The “Inhibition of Aggregation, αSyn” value in test [2] worked out at 49%. Further, the “Inhibition … (compound activity range)” value in test [2] is reported as “(++) ((++) is between 30% to 60% inhibition)”. Also, the inhibition at 20 µM is 44% in test [3] (setting [6]) and 30 to 60% in test [3] (setting [7]).
Turning to `COc1cc2[nH]cc(C(=O)Nc3cccc(O)c3)c(=O)c2c(OC)c1OC` [Compound 28, N-(3-hydroxyphenyl)-5,6,7-trimethoxy-4-oxo-1,4-dihydroquinoline-3-carboxamide], the inhibition at 50 µM in test [1] (setting [4]) is < -50%; in test [1] (setting [5]) it was < -10%. The “Inhibition of Aggregation, αSyn” value in test [2] was determined as 20%. Also, in test [2], the “Inhibition … (compound activity range)” value was “(+) ((+) is between 10% to 30% inhibition)”. The inhibition at 20 µM in test [3] (setting [6]) was -6%; in test [3] (setting [7]), -10 to 10%.
Consider `O=C(Nc1cccc(O)c1)c1c[nH]c2cc(O)c(O)c(O)c2c1=O` [Compound 32, 5,6,7-trihydroxy-N-(3-hydroxyphenyl)-4-oxo-1,4-dihydroquinoline-3-carboxamide], for which the inhibition at 50 µM in test [1] (setting [4]) is > 90%; in test [1] (setting [5]) it was > 60%. Also, the “Inhibition of Aggregation, αSyn” value in test [2] stood at 48%. Also, the “Inhibition … (compound activity range)” value in test [2] is on record as “(++) ((++) is between 30% to 60% inhibition)”. The results for the inhibition at 20 µM in test [3] (setting [6]) and in test [3] (setting [7]) were 53% and 30 to 60%, respectively.
In the case of `O=C(Nc1ccccc1)c1c[nH]c2cc(O)c(O)c(O)c2c1=O` [Compound 33, 5,6,7-trihydroxy-4-oxo-N-phenyl-1,4-dihydroquinoline-3-carboxamide], in test [2], the “Inhibition of Aggregation, αSyn” value is given as 92% and the “Inhibition … (compound activity range)” value was “(+++) ((+++) is greater than 60% inhibition)”. The inhibition at 20 µM in test [3] (setting [6]) turned out to be 59%. Moreover, the inhibition at 20 µM in test [3] (setting [7]) fell in the range of 30 to 60%.
For `COc1cc(NC(=O)c2c(-c3cc(OC)c(OC)c(OC)c3)[nH]c3cc(OC)c(OC)c(OC)c3c2=O)cc(OC)c1OC` [Compound 40, 5,6,7-trimethoxy-4-oxo-N,2-bis(3,4,5-trimethoxyphenyl)-1,4-dihydroquinoline-3-carboxamide] the same measures were −12%, “(−−) ((−−) is less than −10% inhibition)”, 15% and 10 to 30%.
As for `COc1cc(OC)c2c(=O)c(C(=O)Nc3ccccc3O)c[nH]c2c1` [Compound 41, N-(2-hydroxyphenyl)-5,7-dimethoxy-4-oxo-1,4-dihydroquinoline-3-carboxamide], in test [2], the “Inhibition of Aggregation, αSyn” value was 17% and the “Inhibition … (compound activity range)” value is given as “(+) ((+) is between 10% to 30% inhibition)”. Besides, the inhibition at 20 µM in test [3] (setting [6]) turned out to be 18%. Besides, the inhibition at 20 µM in test [3] (setting [7]) fell in the range of 10 to 30%.
For `CN(C(=O)c1c[nH]c2cc(O)cc(O)c2c1=O)c1cc(O)c(O)c(O)c1` [Compound 42, 5,7-dihydroxy-N-methyl-4-oxo-N-(3,4,5-trihydroxyphenyl)-1,4-dihydroquinoline-3-carboxamide], the figures for the inhibition at 50 µM in test [1] (setting [4]) and in test [1] (setting [5]) were > 90% and > 60%, respectively. The “Inhibition of Aggregation, αSyn” value in test [2] was 98%. Also, the “Inhibition … (compound activity range)” value in test [2] was “(+++) ((+++) is greater than 60% inhibition)”. The figures for the inhibition at 20 µM in test [3] (setting [6]) and in test [3] (setting [7]) were 114% and > 60%, respectively.
For `O=C(Nc1ccccc1O)c1c[nH]c2cc(O)c(O)c(O)c2c1=O` [Compound 43, 5,6,7-trihydroxy-N-(2-hydroxyphenyl)-4-oxo-1,4-dihydroquinoline-3-carboxamide], in test [2], the “Inhibition of Aggregation, αSyn” value was determined as 63% and the “Inhibition … (compound activity range)” value was “(++) ((++) is between 30% to 60% inhibition)”. In addition, the inhibition at 20 µM in test [3] (setting [6]) is 90%. In test [3] (setting [7]), the inhibition at 20 µM was > 60%.
`O=C(Nc1cc(O)c(O)c(O)c1)c1c(-c2cc(O)c(O)c(O)c2)[nH]c2cc(O)c(O)c(O)c2c1=O` [Compound 44, 5,6,7-trihydroxy-4-oxo-N,2-bis(3,4,5-trihydroxyphenyl)-1,4-dihydroquinoline-3-carboxamide]: the results for the inhibition at 50 µM in test [1] (setting [4]) and in test [1] (setting [5]) were > 90% and > 60%, respectively. In addition, the “Inhibition of Aggregation, αSyn” value in test [2] was 98%. For the same compound, in test [2], the “Inhibition … (compound activity range)” value is “(+++) ((+++) is greater than 60% inhibition)”. Further, the inhibition at 20 µM in test [3] (setting [6]) is 64%; in test [3] (setting [7]), > 60%.
Take `O=C(Nc1cccc(O)c1)c1c[nH]c2cc(O)cc(O)c2c1=O` [Compound 48, 5,7-dihydroxy-N-(3-hydroxyphenyl)-4-oxo-1,4-dihydroquinoline-3-carboxamide]: the inhibition at 50 µM in test [1] (setting [4]) is > 90%; in test [1] (setting [5]) it was > 60%. For the same compound, the “Inhibition of Aggregation, αSyn” value in test [2] is on record as 37%. Further, in test [2], the “Inhibition … (compound activity range)” value is “(++) ((++) is between 30% to 60% inhibition)”. Also, the figures for the inhibition at 20 µM in test [3] (setting [6]) and in test [3] (setting [7]) were -2% and -10 to 10%, respectively.
